Source: US20030212107A1, “R-reliprodil for treating glaucoma” (priority 2002, published 2003)
Entries after “also recorded” stand apart in the source; their conditions may differ.

How the values were obtained:
[1] = tested on: NMDA-induced firing rate of the lateral vestibular nucleus; experiment: NMDA-induced firing rate of the lateral vestibular nucleus in vivo
NMDA receptor = NMDA receptor (Homo sapiens, UniProt Q05586+Q13224); experiment: biochemical
[2] = cat, in vivo
Procedure: Eliprodil and its enantiomers were evaluated for their potential for prolonging QTc by determining their dose-related effects on cardiac electrical activity. Two different experimental models were utilized for these studies: (1) Action potential duration in piglet Purkinje fibers from the heart and (2) Electrocardiographic parameters in pentobarbital anesthetized cats.
Eliprodil and its two enantiomers were also evaluated for hemodynamic and electrocardiographic parameters in pentobarbital-anesthetized cats. […] Compounds were administered at increasing doses from 0.01 to 3 mg/kg as a five-minute intravenous infusion every 20 minutes.

piglet Purkinje fibre = details: for Concentration with statistically significant prolongation of APD90: pig
Procedure: Eliprodil and its two enantiomers induced concentration-dependent prolongation of the duration of the action potential of the piglet Purkinje fibre, particularly at the 0.25 Hz frequency. Based on action potential duration at 90% repolarization (APD90), statistically significant prolongation was evident at R(−) eliprodil concentrations of 100 nM and higher, but at S(+) eliprodil concentrations of 30 nM and higher. With high concentrations, APD90 decreased with both compounds.

hippocampal slices = experiment: Recovery of synaptic transmission after hypoxia in hippocampal slices in vitro; details: for Recovery of excitatory post synaptic potentials following hypoxia (efficacy): comparable dose, 15 minute hypoxia, recovery assessed 60 minutes after reoxygenation
Procedure: Dose-Response Relations Comparing the Efficacy of Racemic (R/S)-Eliprodil (Open Circles), R-Eliprodil (Closed Circles) and Memantine (Closed Diamonds) for their Ability to Improve Recovery of Synaptic Transmission Following a 15 Minute Period of Hypoxia in Hippocampal Slices in vitro (FIG. 2). […] Briefly, hippocampal slices were prepared acutely the same day as the experiment, and each compound was bath applied 30 minutes prior to delivery of the 15 minute hypoxic insult. Recovery of evoked […] expressed as percent of the initial, pre-hypoxia epsp maximum slope, with this percent recovery assessed 60 minutes after reoxygenation.

[3] = tested on: cultured rat retinal ganglion cells; experiment: Glutamate-induced rat retinal ganglion cell death; assay type: cell-based; details: 10 nM for 30 minutes, then 100 μM glutamate; viable cells counted after 3 days; FIG. 1
From the text: Retinal ganglion cells were selected as they represent the retinal cell that degenerates in glaucoma. MK-801 was selected as a reference NMDA antagonist.
Isolation of rat retinal ganglion cells and assessment of viability in the absence and presence of glutamate was described in Pang, et al., “Protection by Eliprodil Against Excitotoxicity in Cultured Rat Retinal Ganglion Cells”, Investigative Ophthalmology & Visual Science, Vol. 40(6), pp. 1170-1176, May, 1999. Briefly, isolated cultured rat retinal ganglion cells were treated with racemic (R/S) eliprodil (10 nM), R-eliprodil (10 nM), or S-eliprodil (10 nM) for thirty (30) minutes followed by the addition of 100 μM glutamate. Survival was determined by counting viable cells after an incubation period of three (3) days. Survival with vehicle alone defines 100%. […] S-eliprodil was ineffective.

[4] = following some doses in humans; cited from earlier work
5-HT2A = 5-HT2A (Homo sapiens, UniProt P28223); experiment: Binding studies; details: 5-HT2A binding site
5-HT2A, sequence (P28223 whole entry, species assumed): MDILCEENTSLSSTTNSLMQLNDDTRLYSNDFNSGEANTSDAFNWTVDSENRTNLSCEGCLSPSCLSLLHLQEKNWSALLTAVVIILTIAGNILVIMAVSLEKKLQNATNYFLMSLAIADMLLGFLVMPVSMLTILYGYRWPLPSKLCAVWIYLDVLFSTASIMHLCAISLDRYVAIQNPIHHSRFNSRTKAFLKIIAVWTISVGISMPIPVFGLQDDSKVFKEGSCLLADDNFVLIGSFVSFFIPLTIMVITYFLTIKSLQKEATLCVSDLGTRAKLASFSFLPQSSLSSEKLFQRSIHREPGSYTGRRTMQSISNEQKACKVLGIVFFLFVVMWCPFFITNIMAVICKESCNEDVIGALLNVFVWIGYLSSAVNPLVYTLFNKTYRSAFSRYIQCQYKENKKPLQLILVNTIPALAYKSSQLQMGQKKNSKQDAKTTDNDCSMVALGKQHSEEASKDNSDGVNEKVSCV
From the text: (§1) The role of these pharmacological activities in the neuroprotective efficacy has not been established for this drug.

5-HT uptake = 5-HT uptake (Homo sapiens, UniProt P31645); experiment: Binding studies; details: 5-HT uptake binding site
5-HT uptake, sequence (P31645 whole entry): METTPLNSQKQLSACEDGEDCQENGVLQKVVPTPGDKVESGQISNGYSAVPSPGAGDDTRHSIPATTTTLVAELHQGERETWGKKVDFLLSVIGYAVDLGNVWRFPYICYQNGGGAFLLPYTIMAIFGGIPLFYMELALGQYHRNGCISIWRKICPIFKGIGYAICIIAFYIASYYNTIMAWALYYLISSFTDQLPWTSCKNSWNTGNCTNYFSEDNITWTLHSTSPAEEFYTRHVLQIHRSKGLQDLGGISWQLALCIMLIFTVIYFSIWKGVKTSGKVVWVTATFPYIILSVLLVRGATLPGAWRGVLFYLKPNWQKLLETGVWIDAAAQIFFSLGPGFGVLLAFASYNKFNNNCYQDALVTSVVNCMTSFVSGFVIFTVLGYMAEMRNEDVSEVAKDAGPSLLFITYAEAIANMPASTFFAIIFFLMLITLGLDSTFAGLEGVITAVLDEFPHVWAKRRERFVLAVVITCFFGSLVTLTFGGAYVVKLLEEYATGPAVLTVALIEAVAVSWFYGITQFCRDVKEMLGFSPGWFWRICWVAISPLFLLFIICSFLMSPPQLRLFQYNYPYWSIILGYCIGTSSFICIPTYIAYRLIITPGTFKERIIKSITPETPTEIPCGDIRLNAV
From the text: as §1

5-HT1A = biological target: T1, 5-HT1A (Homo sapiens, UniProt P08908); experiment: Binding studies; details: 5-HT1A binding site
T1 sequence (P08908 1-422): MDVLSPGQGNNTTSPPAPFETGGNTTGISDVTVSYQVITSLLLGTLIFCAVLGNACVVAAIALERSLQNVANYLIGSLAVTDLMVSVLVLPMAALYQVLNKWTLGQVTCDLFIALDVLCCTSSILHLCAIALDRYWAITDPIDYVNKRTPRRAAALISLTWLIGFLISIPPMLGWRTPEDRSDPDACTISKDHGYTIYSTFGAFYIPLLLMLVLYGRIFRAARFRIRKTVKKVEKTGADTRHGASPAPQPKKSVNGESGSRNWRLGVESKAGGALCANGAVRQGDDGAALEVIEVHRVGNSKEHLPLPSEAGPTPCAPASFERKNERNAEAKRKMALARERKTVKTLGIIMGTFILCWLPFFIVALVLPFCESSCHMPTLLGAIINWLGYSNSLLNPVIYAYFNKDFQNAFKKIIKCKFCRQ
From the text: as §1

histamine H1 = histamine H1 (Homo sapiens, UniProt P35367); experiment: Binding studies; details: histamine H1 binding site
histamine H1, sequence (P35367 whole entry): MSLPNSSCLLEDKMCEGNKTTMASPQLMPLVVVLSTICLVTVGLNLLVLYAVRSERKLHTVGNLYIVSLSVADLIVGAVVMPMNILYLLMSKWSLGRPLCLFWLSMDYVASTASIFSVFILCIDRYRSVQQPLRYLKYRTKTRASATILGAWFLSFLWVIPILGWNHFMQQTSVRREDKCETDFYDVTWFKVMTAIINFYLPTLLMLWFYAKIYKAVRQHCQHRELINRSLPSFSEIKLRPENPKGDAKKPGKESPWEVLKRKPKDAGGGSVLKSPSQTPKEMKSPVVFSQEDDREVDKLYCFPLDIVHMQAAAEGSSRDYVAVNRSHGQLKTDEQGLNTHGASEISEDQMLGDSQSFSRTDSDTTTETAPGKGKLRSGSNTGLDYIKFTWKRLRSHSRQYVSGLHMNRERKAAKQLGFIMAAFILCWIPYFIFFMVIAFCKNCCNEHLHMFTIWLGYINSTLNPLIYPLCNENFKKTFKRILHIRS
From the text: as §1

β3-adrenergic = β3-adrenergic (Homo sapiens, UniProt P13945); experiment: Binding studies; details: β3-adrenergic binding site
β3-adrenergic, sequence (P13945 whole entry): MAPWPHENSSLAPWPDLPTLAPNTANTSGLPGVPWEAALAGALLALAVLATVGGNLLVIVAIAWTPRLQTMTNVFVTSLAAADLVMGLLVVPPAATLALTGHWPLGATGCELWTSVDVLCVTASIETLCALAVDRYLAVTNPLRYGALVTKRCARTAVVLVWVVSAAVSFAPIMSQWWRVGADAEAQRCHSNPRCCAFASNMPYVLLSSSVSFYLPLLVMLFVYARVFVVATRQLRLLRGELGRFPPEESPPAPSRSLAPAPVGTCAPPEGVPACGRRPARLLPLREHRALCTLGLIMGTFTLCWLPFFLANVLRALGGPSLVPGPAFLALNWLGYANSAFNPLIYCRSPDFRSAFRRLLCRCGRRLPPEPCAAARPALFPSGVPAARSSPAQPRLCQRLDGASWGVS
From the text: as §1

histamine H2 = histamine H2 (Homo sapiens, UniProt P25021); experiment: Binding studies; details: histamine H2 binding site
histamine H2, sequence (P25021 whole entry): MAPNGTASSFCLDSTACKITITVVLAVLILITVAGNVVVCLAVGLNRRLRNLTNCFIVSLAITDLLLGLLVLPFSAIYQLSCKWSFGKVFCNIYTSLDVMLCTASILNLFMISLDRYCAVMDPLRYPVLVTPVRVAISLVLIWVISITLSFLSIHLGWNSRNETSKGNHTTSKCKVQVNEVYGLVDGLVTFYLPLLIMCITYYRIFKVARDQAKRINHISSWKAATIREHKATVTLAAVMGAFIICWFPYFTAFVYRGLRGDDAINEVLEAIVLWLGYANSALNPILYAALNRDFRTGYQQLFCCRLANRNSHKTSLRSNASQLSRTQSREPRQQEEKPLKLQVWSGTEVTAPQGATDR
From the text: as §1

5-HT7 = 5-HT7 (Homo sapiens, UniProt P34969); experiment: Binding studies; details: 5-HT7 binding site
5-HT7, sequence (P34969 whole entry, species assumed): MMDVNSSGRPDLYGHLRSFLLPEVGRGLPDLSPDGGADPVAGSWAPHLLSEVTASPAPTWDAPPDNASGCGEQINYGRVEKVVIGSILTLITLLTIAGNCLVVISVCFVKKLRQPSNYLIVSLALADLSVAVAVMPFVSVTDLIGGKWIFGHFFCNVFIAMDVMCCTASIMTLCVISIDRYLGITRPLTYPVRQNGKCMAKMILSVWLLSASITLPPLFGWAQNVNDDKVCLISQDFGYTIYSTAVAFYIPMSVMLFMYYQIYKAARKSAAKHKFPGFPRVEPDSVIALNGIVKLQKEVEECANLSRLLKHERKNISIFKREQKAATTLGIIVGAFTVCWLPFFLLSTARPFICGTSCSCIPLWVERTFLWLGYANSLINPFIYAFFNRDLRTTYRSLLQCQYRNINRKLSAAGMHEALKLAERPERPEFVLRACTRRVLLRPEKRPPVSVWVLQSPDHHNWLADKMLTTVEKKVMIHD
From the text: as §1

α1-adrenergic = experiment: Binding studies; details: α1-adrenergic binding site
From the text: as §1

[5] = tested on: voltage operated calcium channels of the L, N and P type; experiment: Antagonism at voltage operated calcium channels
From the text: as §1

sodium channels = experiment: Antagonism at sodium channels
From the text: as §1

NMDA receptor, sequence (Q13224 27-1484, other chains not shown): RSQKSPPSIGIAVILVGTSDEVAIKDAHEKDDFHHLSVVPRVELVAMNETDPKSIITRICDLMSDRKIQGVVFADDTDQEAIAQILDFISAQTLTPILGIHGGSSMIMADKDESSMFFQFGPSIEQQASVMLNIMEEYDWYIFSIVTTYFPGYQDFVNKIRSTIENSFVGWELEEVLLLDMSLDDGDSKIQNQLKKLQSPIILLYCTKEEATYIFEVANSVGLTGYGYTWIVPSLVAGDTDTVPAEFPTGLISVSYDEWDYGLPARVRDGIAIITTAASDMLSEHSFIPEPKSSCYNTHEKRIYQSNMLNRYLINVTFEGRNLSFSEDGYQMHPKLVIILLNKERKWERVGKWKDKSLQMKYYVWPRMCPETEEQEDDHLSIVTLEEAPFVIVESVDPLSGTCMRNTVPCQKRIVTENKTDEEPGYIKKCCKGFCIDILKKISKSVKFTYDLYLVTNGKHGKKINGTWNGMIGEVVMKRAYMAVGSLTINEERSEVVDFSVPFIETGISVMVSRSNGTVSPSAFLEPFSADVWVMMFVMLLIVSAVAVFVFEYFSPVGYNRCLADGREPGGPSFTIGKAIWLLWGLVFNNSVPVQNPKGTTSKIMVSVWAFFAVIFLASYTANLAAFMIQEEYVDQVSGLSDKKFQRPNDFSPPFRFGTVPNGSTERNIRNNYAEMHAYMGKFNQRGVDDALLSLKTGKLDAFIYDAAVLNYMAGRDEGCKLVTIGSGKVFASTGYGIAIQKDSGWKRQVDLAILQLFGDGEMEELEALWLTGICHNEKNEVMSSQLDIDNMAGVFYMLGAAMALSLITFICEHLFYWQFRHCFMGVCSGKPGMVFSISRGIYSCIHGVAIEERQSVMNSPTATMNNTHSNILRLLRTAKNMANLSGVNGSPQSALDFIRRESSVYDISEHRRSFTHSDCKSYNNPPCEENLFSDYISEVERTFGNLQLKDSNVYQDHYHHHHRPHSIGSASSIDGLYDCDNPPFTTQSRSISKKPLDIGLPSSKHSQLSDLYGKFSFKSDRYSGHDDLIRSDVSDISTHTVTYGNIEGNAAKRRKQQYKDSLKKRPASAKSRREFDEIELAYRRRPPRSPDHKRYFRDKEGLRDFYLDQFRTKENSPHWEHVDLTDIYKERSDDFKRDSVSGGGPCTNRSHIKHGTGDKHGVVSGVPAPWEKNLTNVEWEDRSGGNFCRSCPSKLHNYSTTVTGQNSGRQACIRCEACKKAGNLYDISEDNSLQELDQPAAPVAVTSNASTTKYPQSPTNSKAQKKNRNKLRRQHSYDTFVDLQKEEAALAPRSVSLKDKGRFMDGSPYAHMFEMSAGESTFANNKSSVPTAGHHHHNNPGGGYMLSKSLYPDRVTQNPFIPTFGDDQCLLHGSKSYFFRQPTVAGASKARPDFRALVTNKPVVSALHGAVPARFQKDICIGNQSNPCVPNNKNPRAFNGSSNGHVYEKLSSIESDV

| Ki (NMDA receptor) [µM] | Concentration with statistically significant prolongation of APD90 (piglet Purkinje fibre) [nM] | SMILES | Inhibition of NMDA-induced firing rate of the lateral vestibular nucleus [1] | Threshold Dose, Heart Rate Decrease [2] [mg/kg] | Threshold Dose, Mean Blood Pressure Decrease [2] [mg/kg] | Threshold Dose, QTc Prolongation [2] [mg/kg] | Recovery of excitatory post synaptic potentials following hypoxia (efficacy) (hippocampal slices) | Neuroprotective effect on glutamate-induced retinal ganglion cell death (survival) [3] | Maximum effect on APD90 (piglet Purkinje fibre) | also measured |
| --- | --- | --- | --- | --- | --- | --- | --- | --- | --- | --- |
| 10 | ≥ 30 | O[C@H](CN1CCC(Cc2ccc(F)cc2)CC1)c1ccc(Cl)cc1 [S-eliprodil] | almost inactive at the highest dose tested | 0.1 | 1.0 | 0.01 | less effective | ineffective | – | – |
| – | – | OC(CN1CCC(Cc2ccc(F)cc2)CC1)c1ccc(Cl)cc1 (racemic) [Eliprodil] | strongly inhibit | 0.1 | 1.0 | 0.03 | less effective | marked neuroprotective activity | equal to that of S(+) eliprodil | QTc prolongation [4]: asymptomatic QTc prolongation; Affinity (5-HT2A): sub-micromolar; Affinity (5-HT uptake): sub-micromolar; Affinity (5-HT1A): sub-micromolar; Affinity (histamine H1): sub-micromolar; Affinity (β3-adrenergic): sub-micromolar; Affinity (histamine H2): sub-micromolar; Affinity (5-HT7): sub-micromolar; Affinity (α1-adrenergic): sub-micromolar; Effect on APD90 at low concentrations (piglet Purkinje fibre): intermediate between the two enantiomers; Antagonism at voltage operated calcium channels [5]: shows antagonism; Antagonism at sodium channels (sodium channels): shows antagonism |
| 0.2 | ≥ 100 | O[C@@H](CN1CCC(Cc2ccc(F)cc2)CC1)c1ccc(Cl)cc1 [R-eliprodil, R-α-(4-chlorophenyl)-4-(4-fluorophenylmethyl)-1-peperidineethanol] | strongly inhibit | 0.3 | 1.0 | 0.1 | substantial recovery; also recorded: more efficacious than either racemic or S-eliprodil | marked neuroprotective activity; also recorded: as efficacious as a protectant as racemic eliprodil | less than is that seen with S(+) eliprodil | Plasma level ([2]; iv, 0.1 mg/kg): 34.9 ± 2.8 ng/mL; Potency (EC50) for recovery of synaptic transmission, compared with racemic-eliprodil or memantine (hippocampal slices; p<0.05, Student's t-test, FIG. 2): statistically significantly more potent |
